One compound from publication PMC12013366, “In vitro evaluation of the immunogenic potential of gramicidin S and its photocontrolled analogues” (RSC Medicinal Chemistry, 2025) can be followed below.

The experiment has as its system membrane-bound CALR on MDA-MB-231 cells. As to the kind of experiment: CALR exposure, cytofluorimetric measurements. It is filed as cell-based, human. Particulars: concentrations higher than IC50 (16 and 32 μM), flow cytometry. The procedure:
We performed fluorescence microscopy using an Alexa Fluor 647 anti-CALR antibody for quantifying the CALR exposure on the surface of cells. Confluent monolayer 4T1, HeLa, HepG2 and MDA-MB-231 cell cultures were incubated with GS and GS-derived peptides for 24 h followed by fixation, staining with the antibody and microscopic observation. Using the images, we calculated the total levels of the fluorescence signal per cell in each sample. […] While practically no enhancement in CALR exposure could be detected in the HeLa cell culture, a 4–7-fold enhancement is observed for HepG2 at 32 μM of GS, LMB002-open and LMB033-open. Then 8 and 16 μM of GS caused a 3-fold increase of CALR exposure in breast cancer cell lines 4T1 and MDA-MB-231. We noted no direct dose dependence of CALR release in our experiments. It may stem from the difference in the kinetics of CALR exposure. To examine the time dependence of the CALR exposure, cytofluorimetric experiments were conducted on the MDA-MB-231 cell line (Fig. 9) using an Alexa Fluor 647 anti-CALR antibody. In this experiment, 30 min, 3 h, 6 h and 24 h were the time points for monitoring the fraction of cells expressing CALR on their surface.
This is different from the release kinetics of ATP, which was released from the cytosol of the cells with compromised plasma membranes almost immediately after the treatment with our peptides. […]

Non-standard residues stand in square brackets, D forms with d. Residues, ends and D or L forms follow the SMILES beside them. Orn = NCCC[C@H](N)C(=O)O

For the compound `CC(C)C[C@@H]1NC(=O)[C@H](CCCN)NC(=O)[C@H](C(C)C)NC(=O)[C@@H]2CCCN2C(=O)[C@@H](Cc2ccccc2)NC(=O)[C@H](CC(C)C)NC(=O)[C@H](CCCN)NC(=O)[C@H](C(C)C)NC(=O)[C@@H]2CCCN2C(=O)[C@@H](Cc2ccccc2)NC1=O` [Gramicidin S, gramicidin S] (cyclo(V[Orn]L[dF]PV[Orn]L[dF]P)), the “incubation time after which all cells exposed CALR on their surface” value came out at 3 h.
